Laboratory results taken from ChEMBL document CHEMBL1201862, “PubChem BioAssay data set” (2004).
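Cells were grown in 96-well plates and exposed to each compound for 48 hours at five concentrations; endpoints were interpolated linearly between bracketing concentrations, or set to the highest concentration if not reached. GI50: concentration for 50% inhibition of growth.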 Active and inactive are the calls of the source. No stated cut-off is given here; in the data, active = GI50 up to about 1.1 µM and inactive = higher.

Columns and labels:
Experiment in all cases: DTP human tumour cell line panel, 48 h
BT-549 = test system: BT-549
MDA-N = test system: MDA-N
HCT-116 = test system: HCT-116
MDA-MB-231 = test system: MDA-MB-231
PC-3 = test system: PC-3
HCC 2998 = test system: HCC 2998
CAKI-1 = test system: CAKI-1
SK-MEL-28 = test system: SK-MEL-28
HT-29 = test system: HT-29
KM12 = test system: KM12
786-0 = test system: 786-0
SF-539 = test system: SF-539
EKVX = test system: EKVX
ACHN = test system: ACHN
CCRF-CEM = test system: CCRF-CEM
Malme-3M = test system: Malme-3M
NCI-H460 = test system: NCI-H460
OVCAR-5 = test system: OVCAR-5
T47D = test system: T47D

SMILES | GI50 (BT-549) | GI50 (MDA-N) | GI50 (HCT-116) | GI50 (MDA-MB-231) | GI50 (PC-3) | GI50 (HCC 2998) | GI50 (CAKI-1) | GI50 (SK-MEL-28) | GI50 (HT-29) | GI50 (KM12) | GI50 (786-0) | GI50 (SF-539) | GI50 (EKVX) | GI50 (ACHN) | GI50 (CCRF-CEM) | GI50 (Malme-3M) | GI50 (NCI-H460) | GI50 (OVCAR-5) | GI50 (T47D)
CCOC(=O)CC1c2ccc(O)cc2OC(=O)C1c1ccc(N)cc1 (configuration not stated) | > 100 µM (inactive) | > 100 µM (inactive) | > 100 µM (inactive) | > 100 µM (inactive) | > 100 µM (inactive) | > 100 µM (inactive) | > 100 µM (inactive) | > 100 µM (inactive) | > 100 µM (inactive) | > 100 µM (inactive) | > 100 µM (inactive) | 56.6 µM (inactive) | > 100 µM (inactive) | > 100 µM (inactive) | > 100 µM (inactive) | > 100 µM (inactive) | > 100 µM (inactive) | – | –
COC(=O)/C=C1\SC2(O\C1=N/c1ccccc1)C1CC3CC(C1)CC2C3 (configuration not stated) | > 100 µM (inactive) | > 100 µM (inactive) | > 100 µM (inactive) | > 100 µM (inactive) | > 100 µM (inactive) | – | > 100 µM (inactive) | > 100 µM (inactive) | > 100 µM (inactive) | > 100 µM (inactive) | – | > 100 µM (inactive) | > 100 µM (inactive) | > 100 µM (inactive) | > 100 µM (inactive) | – | > 100 µM (inactive) | > 100 µM (inactive) | –
COc1cc(OC)cc(C(=O)CC(=O)c2cc(OC)cc(OC)c2)c1 | > 100 µM (inactive) | > 100 µM (inactive) | 69.2 µM (inactive) | – | 94.4 µM (inactive) | > 100 µM (inactive) | – | > 100 µM (inactive) | – | > 100 µM (inactive) | > 100 µM (inactive) | > 100 µM (inactive) | > 100 µM (inactive) | > 100 µM (inactive) | 63.5 µM (inactive) | > 100 µM (inactive) | 56.9 µM (inactive) | > 100 µM (inactive) | > 100 µM (inactive)
COc1cc(C(=O)Nc2cc(C(N)=O)cc(OC)c2OC)cc(NC(=O)/C=C/c2ccccc2)c1OC | > 100 µM (inactive) | > 100 µM (inactive) | – | 20 µM (inactive) | > 100 µM (inactive) | – | – | > 100 µM (inactive) | > 100 µM (inactive) | > 100 µM (inactive) | – | > 100 µM (inactive) | > 100 µM (inactive) | > 100 µM (inactive) | 55.5 µM (inactive) | 2.63 µM (inactive) | 66.4 µM (inactive) | > 100 µM (inactive) | –
CC1(C)OC2OC(COC(=O)C=[N+]=[N-])C3OC(C)(C)OC3C2O1 (configuration not stated) | > 100 µM (inactive) | > 100 µM (inactive) | > 100 µM (inactive) | > 100 µM (inactive) | > 100 µM (inactive) | > 100 µM (inactive) | > 100 µM (inactive) | > 100 µM (inactive) | > 100 µM (inactive) | > 100 µM (inactive) | > 100 µM (inactive) | – | > 100 µM (inactive) | > 100 µM (inactive) | > 100 µM (inactive) | > 100 µM (inactive) | > 100 µM (inactive) | > 100 µM (inactive) | –
COC(=O)C(Cc1cn(C(C)n2cc(CC(NC(C)=O)C(=O)OC)c3ccccc32)c2ccccc12)NC(C)=O (configuration not stated) | > 100 µM (inactive) | > 100 µM (inactive) | > 100 µM (inactive) | 44.5 µM (inactive) | > 100 µM (inactive) | > 100 µM (inactive) | > 100 µM (inactive) | > 100 µM (inactive) | > 100 µM (inactive) | 32.1 µM (inactive) | – | – | 25.5 µM (inactive) | – | 42.5 µM (inactive) | 13.7 µM (inactive) | 63.2 µM (inactive) | > 100 µM (inactive) | –
CCCCc1ccc(Nc2nc(N)c3ncn(COCCO)c3n2)cc1 | 25.5 µM (inactive) | 37.2 µM (inactive) | 26.9 µM (inactive) | 29 µM (inactive) | – | 27.2 µM (inactive) | 38.7 µM (inactive) | – | 24.4 µM (inactive) | 32.8 µM (inactive) | 25.5 µM (inactive) | 28.2 µM (inactive) | 41.4 µM (inactive) | 18 µM (inactive) | 26.4 µM (inactive) | 25.7 µM (inactive) | – | 38.8 µM (inactive) | 24.4 µM (inactive)
O=Nc1c(-c2c(O)[nH]c3ccc(I)cc23)[nH]c2ccccc12 | 18 µM (inactive) | 4.97 µM (inactive) | 3.01 µM (inactive) | 3.79 µM (inactive) | 3.37 µM (inactive) | 2.31 µM (inactive) | 2.45 µM (inactive) | 4.32 µM (inactive) | 3.48 µM (inactive) | 0.282 µM (active) | – | 7.03 µM (inactive) | 2.96 µM (inactive) | 2.53 µM (inactive) | 2.08 µM (inactive) | – | 3.7 µM (inactive) | 3.25 µM (inactive) | –
CCc1nc(N)nc(N)c1-c1ccc(Cl)c([N+]#N)c1 | > 100 µM (inactive) | – | 41.8 µM (inactive) | > 100 µM (inactive) | 61.7 µM (inactive) | – | 58.3 µM (inactive) | > 100 µM (inactive) | 33.3 µM (inactive) | 38.1 µM (inactive) | 48.2 µM (inactive) | 44.3 µM (inactive) | > 100 µM (inactive) | 39.4 µM (inactive) | – | > 100 µM (inactive) | 37.8 µM (inactive) | > 100 µM (inactive) | > 100 µM (inactive)
